From patent publication US8513285B2, “3 or 4-substituted piperidine compounds” (SK Biopharmaceuticals Co., Ltd., priority 2008, dated 2013)

Legend:
[1] = molecular target: T1, human serotonin transporter (Homo sapiens, UniProt P31645); test: Serotonin transporter reuptake inhibition assay; format: cell-based; details: HEK293; 100 nM; HEK-293 cells with human serotonin transporter; [3H]Serotonin uptake; read-out: Inhibition % at 100 nM 5-HT reuptake
T1 construct: expressed in transfected cells; host or cells: HEK-293
T1 sequence (P31645 whole entry): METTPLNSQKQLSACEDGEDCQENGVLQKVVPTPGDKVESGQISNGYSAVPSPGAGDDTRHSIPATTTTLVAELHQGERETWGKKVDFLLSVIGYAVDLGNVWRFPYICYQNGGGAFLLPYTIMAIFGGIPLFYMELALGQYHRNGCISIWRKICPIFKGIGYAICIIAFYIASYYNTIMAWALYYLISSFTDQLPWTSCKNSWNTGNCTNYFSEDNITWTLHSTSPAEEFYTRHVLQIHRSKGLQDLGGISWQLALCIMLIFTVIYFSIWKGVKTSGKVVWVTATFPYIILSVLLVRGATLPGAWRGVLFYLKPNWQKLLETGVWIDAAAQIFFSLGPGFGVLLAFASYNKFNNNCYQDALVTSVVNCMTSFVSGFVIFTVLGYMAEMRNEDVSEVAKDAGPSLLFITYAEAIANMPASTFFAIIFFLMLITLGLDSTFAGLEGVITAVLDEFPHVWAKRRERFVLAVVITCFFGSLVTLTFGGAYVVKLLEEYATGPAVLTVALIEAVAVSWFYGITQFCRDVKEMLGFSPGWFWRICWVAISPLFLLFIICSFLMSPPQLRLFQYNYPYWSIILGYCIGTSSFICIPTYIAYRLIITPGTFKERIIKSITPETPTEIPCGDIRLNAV
Experimental: Serotonin Transporter Reuptake Inhibition Assay
The method to test the ability of compounds to inhibit transporters from reuptake of serotonin followed Gu H. et al., J Biol. Chem., 1994, 269, p […].
The recombinant HEK-293 cells with human serotonin transporter were plated. Test compounds were pre-incubated with cells (2×10^5/ml) in modified Tris-HEPES buffer pH 7.1 for 20 minutes at 25° C. and then they were incubated for additional 10 minutes after 65 nM of [^3H]Serotonin was added. Bound cells were filtered and counted to determine [^3H]Serotonin uptake. Reduction of [^3H]Serotonin uptake by 50 percent or more (≧50%) relative to 10 μM fluoxetine indicates significant inhibitory activity. Compounds were screened at 10, 1, 0.1, 0.01 and 0.001 μM for IC50s.

[2] = molecular target: T2, human recombinant norepinephrine transporter (Homo sapiens, UniProt P23975); test: Norepinephrine transporter reuptake inhibition assay; format: cell-based; details: 100 nM; MDCK cells with human norepinephrine transporter; [3H]Norepinephrine uptake; read-out: Inhibition % at 100 nM NE reuptake
T2 construct: expressed in transfected cells; host or cells: MDCK
T2 sequence (P23975 whole entry): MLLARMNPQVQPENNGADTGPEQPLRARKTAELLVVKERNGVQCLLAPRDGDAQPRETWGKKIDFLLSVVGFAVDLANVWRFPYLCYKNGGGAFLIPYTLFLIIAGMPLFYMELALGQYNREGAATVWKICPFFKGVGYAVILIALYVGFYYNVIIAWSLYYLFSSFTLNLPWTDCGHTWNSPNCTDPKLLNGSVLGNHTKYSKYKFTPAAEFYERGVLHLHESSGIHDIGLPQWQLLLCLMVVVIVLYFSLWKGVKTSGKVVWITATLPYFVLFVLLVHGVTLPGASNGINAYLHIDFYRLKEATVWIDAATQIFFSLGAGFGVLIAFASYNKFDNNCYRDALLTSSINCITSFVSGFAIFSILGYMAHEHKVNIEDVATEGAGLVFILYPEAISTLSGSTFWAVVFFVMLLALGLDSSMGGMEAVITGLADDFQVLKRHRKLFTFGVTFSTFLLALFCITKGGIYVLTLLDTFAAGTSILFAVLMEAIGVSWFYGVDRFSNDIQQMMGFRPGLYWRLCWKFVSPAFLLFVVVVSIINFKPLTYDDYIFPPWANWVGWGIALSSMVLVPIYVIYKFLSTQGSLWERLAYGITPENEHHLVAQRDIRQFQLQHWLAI
Experimental: Norepinephrine Transporter Reuptake Inhibition Assay
Norepinephrine transporter reuptake inhibition assay used the method described by Galli A. et al., J Exp Biol., 1995, 198, p 2197˜2212.
MDCK cells with stably expressed human recombinant norepinephrine transporter were plated one day. Test compounds were pre-incubated with cells (2×10^5/ml) in modified Tris-HEPES buffer pH 7.1 for 20 minutes at 25° C. and then they were incubated for additional 10 minutes after 25 nM of [^3H]Norepinephrine was added. A lysate was obtained from solubilized cells and the filtered lysate was counted to determine [^3H]Norepinephrine uptake. Reduction of [^3H]Norepinephrine uptake by 50 percent or more (≧50%) relative to 10 μM desipramine indicates significant inhibitory activity. Compounds were screened at 10, 1, 0.1, 0.01 and 0.001 μM to determine their IC50s.

[3] = molecular target: T3, human recombinant dopamine transporter (Homo sapiens, UniProt Q01959); test: Dopamine transporter reuptake inhibition assay; format: cell-based; details: 100 nM; CHO-K1 cells with human dopamine transporter; [3H]Dopamine uptake; read-out: Inhibition % at 100 nM DA reuptake
T3 construct: expressed in transfected cells; host or cells: CHO-K1
T3 sequence (Q01959 whole entry): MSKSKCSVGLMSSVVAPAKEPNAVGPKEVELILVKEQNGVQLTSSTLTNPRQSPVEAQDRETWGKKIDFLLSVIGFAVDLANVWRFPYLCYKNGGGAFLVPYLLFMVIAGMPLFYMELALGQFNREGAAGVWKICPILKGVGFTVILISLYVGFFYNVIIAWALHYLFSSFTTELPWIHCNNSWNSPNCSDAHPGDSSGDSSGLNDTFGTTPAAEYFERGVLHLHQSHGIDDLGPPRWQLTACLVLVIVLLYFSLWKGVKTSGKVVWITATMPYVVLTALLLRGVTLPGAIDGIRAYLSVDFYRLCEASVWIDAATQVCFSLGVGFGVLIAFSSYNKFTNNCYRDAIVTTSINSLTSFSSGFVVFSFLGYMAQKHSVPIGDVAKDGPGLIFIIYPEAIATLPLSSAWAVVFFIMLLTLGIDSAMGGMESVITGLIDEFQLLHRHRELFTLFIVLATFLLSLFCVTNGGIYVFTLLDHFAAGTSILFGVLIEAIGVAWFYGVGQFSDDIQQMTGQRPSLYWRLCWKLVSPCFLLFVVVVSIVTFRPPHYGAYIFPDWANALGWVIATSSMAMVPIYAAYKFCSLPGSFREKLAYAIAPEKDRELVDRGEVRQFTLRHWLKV
Experimental: Dopamine Transporter Reuptake Inhibition Assay
The assay followed the method modified from Pristupa Z. B. et al., Mol. Pharmacol., 1994, p 125˜135.
CHO-K1 cells with human recombinant dopamine transporter were plated. Test compounds were pre-incubated with cells (4×10^5/ml) in modified Tris-HEPES buffer pH 7.1 for 20 minutes at 25° C. and then they were incubated for additional 10 minutes after 50 nM of [^3H]Dopamine was added. A lysate is obtained from solubilized cells and counted to determine [^3H]Dopamine uptake. Reduction of [^3H]Dopamine uptake by 50 percent or more (≧50%) relative to 10 μM nomifensine indicates significant inhibitory activity. Compounds were tested at 10, 1, 0.1, 0.01 and 0.001 μM for IC50s.

mice [4] = test: Forced swimming test in mice (FST); format: in vivo; details: Mus musculus, 0.5 h, 30ip, 30 min after administration, vs control group, read-out: Reduction % at 30ip (duration of immobility)
Experimental: Forced Swimming Test in Mice (FST)
The Forced swimming test is an animal model based on the rodent's behavioral repertoire for screening drugs with potential antidepressant activity. As in several other models used for this goal, an uncontrollable stress stimulus produces behavioral changes that are sensitive to antidepressant treatment.
The mice were intraperitoneally treated with the test compound with an injection volume of […]. The group treated with 30% PEG400 served as a control group. Thirty minutes following administration, mice were individually forced to swim in a transparent glass vessel (14 cm high, 11.5 cm in diameter) filled with 10 cm of water at 25° C. The total duration of immobility (second) was measured during the last 4 minutes of a single 6-min test session. Mice were considered immobile when they made no further attempts to escape other than the movements necessary to keep their heads above the water. The potent ability of the compounds was determined as percent value of reduction in the duration of immobility comparing to the control group.

mice [5] = test: Marble burying test; format: in vivo; details: 30 min after treatment, vs control group
Description: The Marble burying test is a screening tool for putative anxiolytics. In this test, control mice naturally bury glass marbles in the cage bedding and the administration of anxiolytic compounds, including Diazepam, reduces the number of buried marbles. Positive compounds in the marble burying test including selective serotonin reuptake inhibitor may be especially beneficial to obsessive-compulsive disorder.
A group of mice was intraperitoneally treated with test compound dissolved in 30% PEG400 with an injection volume of 10 ml/kg. The group treated with only 30% PEG400 served as a control group. Thirty minutes after the treatment, the animals were individually placed in a polycarbonate cage which was same as used for animal housing with an open top located within a quiet room. Each cage consisted of ⅛ inch corn bedding 5 cm deep. Twenty four clean glass marbles (15 mm diameter) were evenly spaced in four rows of six on top of the bedding. Each mouse was left in the cage for 30 minutes and the number of marbles buried (buried more than ½ or ⅔) was counted. The potent ability of the compounds was determined as percent value of reduction in the number of marbles buried comparing to the control group.

mice [6] = test: Acetic acid induced writhing test (AA writhing test); format: in vivo; details: 30sc, 0.8% acetic acid i.p. 30 min later, vs control group
Description: Specially the results of Marble burying test (MB) in mice as noted in Table 3 show the compounds of the invention are related to the treatment of anxiety. Acetic Acid Induced Writhing Test (AA Writhing Test)
The Acetic acid-induced writhing test is a well-established nociceptive test using a chemical stimulus. Although several animal models of nociceptive tests have been developed to examine and compare the anti-nociceptive effects of different drugs, the anti-nociceptive effects of antidepressants appear to be test-dependent. Indeed, the acetic acid-induced writhing test is more sensitive to antidepressants than other tests using thermal, mechanical or electrical stimuli.
The animals were subcutaneously treated with the test compound with an injection volume of 10 ml/kg. The group treated with 30% PEG400 or saline served as a control group. Thirty minutes later, the mice were intraperitoneally treated with 0.8% (v/v) acetic acid. Each mouse was then placed in a cage for individual observation. The writhing numbers for 10 minutes were counted. The writhe is operationally defined as a contraction of the abdomen followed by stretching of the hind limbs. The potent ability of the compounds was determined as percent value of reduction in the number of writhing comparing to the control group.

Compound `Clc1ccc([C@@H]([C@@H]2CCCNC2)n2ncnn2)cc1Cl` [Example 15, (3R)-3-[(R)-(3,4-dichlorophenyl)(2H-tetrazol-2-yl)methyl]piperidine] has an inhibition at 0.1 µM [1] of 75%, an inhibition at 0.1 µM [2] of 98% and an inhibition at 0.1 µM [3] of 99%. The inhibition in vivo at 30 mg/kg (mice [4]) was 96.5%, the “Reduction % at 30ip (number of marbles buried)” value (“Reduction % at 30ip” below) (mice [5]) was 75.3% and the “Reduction % at 30sc (number of writhing)” value (mice [6]) was 55.3%.

`Fc1ccc2cc([C@@H]([C@@H]3CCCNC3)n3ncnn3)ccc2c1` [Example 83, (3R)-3-[(R)-(6-fluoronaphthalen-2-yl)(2H-tetrazol-2-yl)methyl]piperidine] was tested, and the inhibition at 0.1 µM [1] was 96%, the inhibition at 0.1 µM [2] was 78% and the inhibition at 0.1 µM [3] was 66%. For the same compound, the inhibition in vivo at 30 mg/kg (mice [4]) was 51.8%, the “Reduction % at 30ip” value (mice [5]) was 83.7% and the “Reduction % at 30sc (number of writhing)” value (mice [6]) was 84.1%.

`Fc1ccc2cc([C@H]([C@H]3CCCNC3)n3ncnn3)ccc2c1` [Example 71] gave an inhibition at 0.1 µM [1] of 92%, an inhibition at 0.1 µM [2] of 46% and an inhibition at 0.1 µM [3] of 54%. The inhibition in vivo at 30 mg/kg (mice [4]) was 54%, the “Reduction % at 30ip” value (mice [5]) was 86.0% and the “Reduction % at 30sc (number of writhing)” value (mice [6]) was 48.7%.

With `c1ccc2cc([C@@H]([C@@H]3CCCNC3)n3ncnn3)ccc2c1` [Example 1, (3R)-3-[(R)-naphthalen-2-yl(2H-tetrazol-2-yl)methyl]piperidine] the inhibition at 0.1 µM [1] was 81%, the inhibition at 0.1 µM [2] was 94% and the inhibition at 0.1 µM [3] was 88%. The inhibition in vivo at 30 mg/kg (mice [4]) was 56.3%, the “Reduction % (number of marbles buried) at 10ip” value (mice [5]; 10ip) was 57.5% (at 10ip) and the “Reduction % at 30sc (number of writhing)” value (mice [6]) was 70.8%.
